{"source": "patent US9309314B2", "about": "“Polypeptides, nucleic acids and uses thereof” (AGENCY FOR SCIENCE, TECHNOLOGY AND RESEARCH (A*STAR), priority 2013, dated 2016)", "key": {"SSEA3 and TRA-1-60": {"tested_on": "SSEA3 and TRA-1-60", "assay": "FACs of stem cell surface markers in ELA-treated hESCs", "assay_type": "cell-based, human", "conditions": "hESCs treated with recombinant ELA"}, "shELA hESCs": {"tested_on": "shELA hESCs", "assay": "Rescue of growth of shELA hESCs by exogenous peptide", "assay_type": "cell-based, human", "conditions": "addition of recombinant peptide", "method": "(§1) For xCELLigence real time growth assays, 4000 cells were plated per well of an E-plate (ACEA Biosciences) with media changes every 48 hours.\n(§2) Recombinant ELA was added at 2.5 uM (or 10 μg/ml). Cell cycle studies were performed with Click-iT EDU staining kit (Invitrogen) and by performing a double thymidine block (2.5 mM thymidine; 16 hour block, 8 hour release, 16 hour block) followed by DAPI staining for DNA content at the indicated times following release.\nTo generate stable inducible knockdown of ELA in hESCs, the sequence […] (SEQ ID NO: 132) targeting the 3′UTR of ELA was cloned into pSUPERIOR (Oliogoengine) and nucleofected (Lonza) into Shef4TetR5 hESCs (Zafarana et al., 2009). Neomycin-resistant cells were clonally expanded and assayed for doxycycline (20 ng/ml)-inducible knockdown. Data from one representative clone (Shef4TetR5 shELA) are shown in this paper. Shef4TetR5 shβ2M were derived as previously described (Zafarana et al., 2009). Unless otherwise stated, ELA knockdown was induced on Day −4 with 20 ng/ml doxycycline to generate shELA cells."}, "erectile function": {"tested_on": "erectile function", "assay": "Erectile dysfunction (APELIN publication repeated with ELABELA)", "conditions": "mouse, in vivo", "text": "J Sex Med. 2013 Apr. 11. doi: 10.1111/jsm.12158."}, "[1]": {"tested_on": "myocardial ischaemia-reperfusion injury", "assay": "Myocardial ischaemia-reperfusion injury (APELIN publications repeated with ELABELA)", "assay_type": "in vivo", "conditions": "administered during reperfusion", "text": "Peptides 2009; 30:1144-52. • Simpkin J C, Yellon D M, Davidson S M, Lim S Y, Wynne A M, Smith C C. […] Basic Res Cardiol 2007; 102:518-28."}, "hESCs [2]": {"tested_on": "hESCs", "assay": "Embryoid body differentiation of ELA-treated hESCs (qPCR)", "assay_type": "cell-based, human", "method": "Embryoid body differentiation was performed by plating 1 million cells per well of an Aggrewell 400 plate in Aggrewell Medium (Stem Cell Technologies) followed by harvesting and replating into low-adhesion plates (Corning).\n(§3) After the indicated time periods, embryoid bodies were harvested and RNA extracted using RNeasy kit […]. qPCR reactions were carried out using either Universal FastStart SYBR Green Mastermix (Roche) or using the Universal Probe Library system (Roche) in tandem with Taqman Fast Mastermix (Invitrogen). Primer sequences can be found in Table E1."}, "[3]": {"tested_on": "pulmonary arterial hypertension", "assay": "Pulmonary arterial hypertension (APELIN publications repeated with ELABELA)", "conditions": "in vivo", "text": "J Clin Invest 2011; 121:3735-46.\nAm J Physiol Heart Circ Physiol 2009; 296:H2007-14."}, "hESCs [4]": {"tested_on": "hESCs", "assay": "Uptake of FITC-labeled recombinant ELA by hESCs (immunofluorescence)", "assay_type": "cell-based, human", "conditions": "peptide labeled with FITC"}, "myocardial infarction": {"tested_on": "myocardial infarction", "assay": "Coronary artery disease / myocardial infarction (APELIN publications repeated with ELABELA)", "assay_type": "in vivo, rat", "text": "Peptides 2013; 46:76-82. • Li L, Zeng H, Chen J X. Apelin-13 increases myocardial progenitor cells and improves repair postmyocardial infarction. Am J Physiol Heart Circ Physiol 2012; 303:H605-18. • Pisarenko O I, Serebryakova L I, Pelogeykina Y A, et al. In vivo reduction of reperfusion injury to the heart with apelin-12 peptide in rats. Bull Exp Biol Med 2011; 152:79-82."}, "heart failure": {"tested_on": "heart failure", "assay": "Heart failure (APELIN publications repeated with ELABELA)", "conditions": "in vivo", "text": "Nature 2012 Aug. […] J Clin Invest. 2013 Nov. 1."}, "other tested cell types": {"tested_on": "other tested cell types", "assay": "Cellular uptake of recombinant ELA in other tested cell types", "assay_type": "cell-based", "conditions": "other tested cell types than hESCs"}, "hESCs [5]": {"tested_on": "hESCs", "assay": "Directed endoderm differentiation of hESCs (SOX17+ cell count)", "assay_type": "cell-based, human", "conditions": "2.5 uM ELA peptide up to day 3", "method": "Shef4TetR5-shELA and Shef4TetR5-shβ2M cells were cultured in the presence (shELA and shβ2M respectively) or absence (Control) of 20 ng/ml doxycycline for 1 passage (4 days) and dissociated with Accutase. […] 24 hours later, the media was changed to Endo differentiation media 1 [RPMI 1640 (Gibco), 1X B-27 supplement (Invitrogen), 50 ng/ml of Activin A (R&D Systems), 25 ng/ml BMP4 (R&D Systems) and 50 ng/ml bFGF (Invitrogen)] for 3 days. On day 3, the media was changed to Endo differentiation media 2 (RPMI 1640, B27, 50 ng/ml Activin) for 2 more days of culture. Rescue experiments were performed by adding 2.5 uM of ELA peptide to Shef4TetR5-shELA concurrently with doxycycline up to day 3, when the ELA peptide is no longer necessary as judged by downregulation of endogenous ELA.\nOn day 5, cells were fixed with 4% paraformaldehyde and stained with α SOX17 (AF1924, R&D Systems) and DAPI. For each well, three different randomly selected fields were imaged and the number of nuclei staining positive of SOX17 and DAPI were counted using a custom macro in ImageJ. A minimum of two wells per condition was used for each experiment, and a minimum of two independent experiments were performed to generate the results."}, "hESCs [6]": {"tested_on": "hESCs", "assay": "hESC growth assays (cell counts, colony size, xCELLigence real time cell index)", "assay_type": "cell-based, human", "method": "Feeder-free hESCs were cultured in clumps in mTSER1 (Stem Cell Technologies) on Matrigel (BD 354277).\nhESCs were dissociated into single cells using Accutase (Stem Cell Technologies) and plated in the presence of 10 μM Y-27632 (ROCK inhibitor) for 12 hours (Watanabe et al., 2007).\nas §1, §2"}, "atherosclerosis": {"tested_on": "atherosclerosis", "assay": "Atherosclerosis (APELIN publication repeated with ELABELA)", "conditions": "mouse, in vivo", "text": "J Clin Invest 2008; 118:3343-54.\nThe experiments described in the above publication are repeated, with the replacement of APELIN with ELABELA."}, "[7]": {"tested_on": "primary human fibroblasts", "assay": "Growth and survival of primary fibroblasts with recombinant ELA", "assay_type": "cell-based", "conditions": "primary fibroblast cells", "method": "(§4) Primary human fibroblasts, SW1353 chondrosarcoma (ATCC) and NTERA2 hECs (a gift from Barbara Knowles and Davor Solter) were grown in Dulbecco's modified Eagle's medium (DMEM) with 10% FBS (Hyclone), 2 mM GlutaMAX™ (Invitrogen) and 1 mM sodium pyruvate.\nas §1, §2"}, "hECs": {"tested_on": "hECs", "assay": "Growth and survival of hECs with recombinant ELA", "assay_type": "cell-based, human", "conditions": "multipotent hECs", "method": "as §4, §1, §2"}, "[8]": {"tested_on": "mesendodermal genes including GATA6, GATA4, FOXA2, EOMES and BRA", "assay": "qPCR of mesendodermal markers in hESCs", "assay_type": "cell-based, human", "method": "as §3"}, "[9]": {"tested_on": "human chondrosarcoma cell line", "assay": "Growth and survival of chondrosarcoma cells with recombinant ELA", "assay_type": "cell-based", "conditions": "unipotent human chondrosarcoma cells", "method": "as §4, §1, §2"}, "blood pressure": {"tested_on": "blood pressure", "assay": "Hypertension (APELIN publications repeated with ELABELA)", "conditions": "in vivo", "text": "Regulatory Peptides. 2001; 99(2-3):87-92. • Cheng X, Cheng X S, Pang C C. […] European Journal of Pharmacology. […] Journal of the American College of Cardiology. 2008; 52(11):908-913."}}, "note": "Entries after “also recorded” stand apart in the source; their conditions may differ.", "data": [{"sequence": "QRPVNLTMRRKLRKHNCLQRRCMPLHSRVPFP (listed as Homo sapiens) [ELA, synthetically produced recombinant mature human ELABELA, a 32 amino-acid peptide hormone]", "values": [{"measurement": "levels of cell surface markers SSEA3 and TRA-1-60", "setting": "SSEA3 and TRA-1-60", "value": "do not lose; also recorded: unchanged levels"}, {"measurement": "rescue of the growth of shELA hESCs", "setting": "shELA hESCs", "value": "sufficient to rescue; also recorded: entirely rescued to normal levels"}, {"measurement": "erectile function", "setting": "erectile function", "value": "significant restoration of erectile function"}, {"measurement": "infarct size", "setting": "[1]", "value": "significantly decrease infarct size"}, {"measurement": "lineage commitment during embryoid body differentiation", "setting": "hESCs [2]", "value": "can differentiate into all three germ layers; also recorded: not biased towards mesoderm or endoderm lineages"}, {"measurement": "symptoms of pulmonary arterial hypertension", "setting": "[3]", "value": "alleviates symptoms of pulmonary arterial hypertension"}, {"measurement": "uptake by hESCs", "setting": "hESCs [4]", "value": "rapidly up-taken; also recorded: rapidly taken up"}, {"measurement": "myocardial infarction size and damage to cardiomyocytes", "setting": "myocardial infarction; injection", "value": "limit the myocardial infarction size and reduce damage to cardiomyocytes"}, {"measurement": "angiogenesis and cardiac repair postmyocardial infarction", "setting": "myocardial infarction; rat, in vivo", "value": "promote angiogenesis and ameliorate cardiac repair postmyocardial infarction"}, {"measurement": "protection against heart failure", "setting": "heart failure", "value": "able to provide protection against heart failure"}, {"measurement": "rapid cellular uptake", "setting": "other tested cell types", "value": "not in other tested cell types"}, {"measurement": "rescue of endoderm differentiation of shELA hESCs", "setting": "hESCs [5]", "value": "entirely rescued; also recorded: sufficient to rescue"}, {"measurement": "growth of hESCs by cell numbers", "setting": "hESCs [6]; FIG. 3C, relative to untreated hESCs", "value": "increased growth"}, {"measurement": "survival of hESCs", "setting": "hESCs [6]; FIG. 3D, relative to untreated hESCs", "value": "increased survival"}, {"measurement": "concentration range in which the recombinant peptide is bioactive", "setting": "hESCs [6]; hESCs, endogenous ELA in conditioned media is in the nM range", "value": "μM range"}, {"measurement": "Ang II-mediated increase in atherosclerosis burden", "setting": "atherosclerosis", "value": "mitigates the Ang II-mediated increase in atherosclerosis burden"}, {"measurement": "abdominal aortic aneurysm formation and rupture", "setting": "atherosclerosis", "value": "inhibit abdominal aortic aneurysm formation and rupture"}, {"measurement": "protection against atherosclerosis", "setting": "atherosclerosis", "value": "can protect against atherosclerosis"}, {"measurement": "pro-growth and survival properties", "setting": "[7]", "value": "not seen; also recorded: exerted activity only on hESCs cultures"}, {"measurement": "pro-growth and survival properties", "setting": "hECs", "value": "not seen; also recorded: exerted activity only on hESCs cultures"}, {"measurement": "expression of mesendodermal markers", "setting": "[8]", "value": "significantly higher levels of mesendodermal markers; also recorded: consistently upregulated"}, {"measurement": "HIV-1 entry", "setting": "HIV-1", "value": "prevents or slows-down HIV-1 entry"}, {"measurement": "pro-growth and survival properties", "setting": "[9]", "value": "not seen; also recorded: exerted activity only on hESCs cultures"}, {"measurement": "blood pressure", "setting": "blood pressure", "value": "causes a reduction in blood pressure"}]}]}
